Experimental data: the NIST ThermoML archive (doi:10.1021/je900550v)

Experiment: refractive index (Na D-line) (dimensionless)
Conditions: 101.33 kPa, Liquid, Standard Abbe refractometry

C[NH2+]CCO.O=C[O-] [2-hydroxy-N-methylethanaminium formate]
Conditions	refractive index
288.35 K	1.4485
293.15 K	1.447
298.35 K	1.4458
303.15 K	1.4446
308.23 K	1.4429
313.1 K	1.4418
318.15 K	1.4406
322.85 K	1.4396

CC(C)C(=O)[O-].C[NH2+]CCO [2-hydroxy-N-methylethanaminium isobutyrate]
Conditions	refractive index
288.11 K	1.4539
293.15 K	1.4525
298.05 K	1.4511
303.05 K	1.4496
308.05 K	1.4481
313.05 K	1.4463
318.08 K	1.4448
323.15 K	1.4433

CCCCC(=O)[O-].C[NH2+]CCO [2-hydroxy-N-methylethanaminium pentanoate]
Conditions	refractive index
288.15 K	1.4568
293.12 K	1.4554
298.19 K	1.4538
303.15 K	1.4524
308.18 K	1.4508
313.25 K	1.4492
318.15 K	1.4474
323.18 K	1.4461

CCC(=O)[O-].C[NH2+]CCO [2-hydroxy-N-methylethanaminium propionate]
Conditions	refractive index
288.15 K	1.4561
293.2 K	1.4548
298.2 K	1.4534
303.15 K	1.452
308.15 K	1.4507
313.18 K	1.4492
318.15 K	1.4478
323.15 K	1.4464

CC(=O)[O-].C[NH2+]CCO [N-methyl-2-hydroxyethylammonium acetate]
Conditions	refractive index
288.25 K	1.4518
293.23 K	1.4506
298.15 K	1.4494
303.13 K	1.4483
308.13 K	1.447
313.05 K	1.4457
318.13 K	1.4445
323.1 K	1.4433

CCCC(=O)[O-].C[NH2+]CCO [N-methyl-2-hydroxyethylammonium butanoate]
Conditions	refractive index
288.15 K	1.4579
293.15 K	1.4564
298.15 K	1.4549
303.15 K	1.4534
308.15 K	1.452
313.15 K	1.4504
318.15 K	1.4488
323.15 K	1.4471
